Experiment [1] deals with T1, LspPae (lipoprotein signal peptidase II from Pseudomonas aeruginosa) (Pseudomonas aeruginosa, UniProt Q9HVM5).
T1 construct: made in house
T1 sequence (Q9HVM5 1-169): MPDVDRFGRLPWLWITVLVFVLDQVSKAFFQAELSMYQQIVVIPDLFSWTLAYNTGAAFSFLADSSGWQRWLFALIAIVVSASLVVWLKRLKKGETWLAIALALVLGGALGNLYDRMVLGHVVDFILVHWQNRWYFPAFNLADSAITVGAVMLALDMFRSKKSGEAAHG
The experiment can be described thus: Coupled gel-shift peptidase assay with proICP substrate, LspPae WT. It counts as biochemical. From the text:
(§1) The peptidase activity of LspMrs and P. aeruginosa LspA (LspPae) was quantified in a coupled gel-shift assay developed previously for LspPae[5]. The P. aeruginosa lipoprotein pre-proICP and the first two enzymes in the bacterial lipoprotein processing pathway Lgt and LspA were expressed and purified, as described. For FRET assays LspMrs was expressed and purified as described above and LspPae was expressed and purified as described in a published protocol.
Gel-shift activity assay. For time course assays, reactions were set up containing 12 µM pre-proICP, 250 µM DOPG (Avanti Polar Lipids, Inc.) and 1.2 µM Lgt in Buffer E (50 mM Tris/HCl pH 7.5, 150 mM NaCl, 1 mM DTT, 0.02%(w/v) LMNG). The assay mixtures were incubated at 37 °C and 200 rpm for 60 min to allow Lgt catalysed conversion of pre-proICP to the LspA substrate proICP. The LspA reaction was initiated by adding 0.5 µM LspA directly to the assay mixture. At timed intervals, 20 µL samples were removed and the reaction was stopped by adding 10 µL of 4x SDS loading buffer (62.5 mM Tris/HCl pH 6.8, 2.5%(w/v) SDS, 0.002%(w/v) bromophenol blue, 0.5 M β-mercaptoethanol, 10%(v/v) glycerol). To compare the activity of wild-type and mutant LspMrs, assays were allowed to proceed for 30 min before being stopped with SDS loading buffer. […] The reactions were initiated by adding LspA and allowed to proceed for 30 min. After the reaction was stopped with SDS buffer, 10 μL aliquots were loaded on precast Mini-PROTEAN® TGX^TM gels (Bio-Rad) and run with Tris/glycine buffer (25 mM Tris/HCl pH 8.0, 250 mM glycine, 0.1%(w/v) SDS). The gels were stained using InstantBlue™ (Expedeon) Coomassie based stain and were imaged using a Bio-Rad Gel-Doc imager (Supplementary Fig. 4). Band intensities of ICP were quantified using Image Lab. Dose-response plots to determine IC50 values were generated using Prism® 5 software from GraphPad.

The target in experiment [2] is T2, LspMrs (lipoprotein signal peptidase II from methicillin-resistant Staphylococcus aureus) (Staphylococcus aureus, UniProt Q6GHN9).
T2 construct: MGSS-hexahistidine-SSGR-TEV site (ENLYFQ) (N, cleaved yes); made in house; host or cells: E. coli C43 (DE3)
The experiment can be described thus: Coupled gel-shift peptidase assay with proICP substrate, LspMrs WT. The experiment is classed as biochemical. As to conditions: proICP substrate (12 µM pre-proICP), 0.5 µM enzyme, 30 min.
Text: as §1
Gel-shift activity assay. For time course assays, reactions were set up containing 12 µM pre-proICP, 250 µM DOPG (Avanti Polar Lipids, Inc.) and 1.2 µM Lgt in Buffer E (50 mM Tris/HCl pH 7.5, 150 mM NaCl, 1 mM DTT, 0.02%(w/v) LMNG). The assay mixtures were incubated at 37 °C and 200 rpm for 60 min to allow Lgt catalysed conversion of pre-proICP to the LspA substrate proICP. The LspA reaction was initiated by adding 0.5 µM LspA directly to the assay mixture. At timed intervals, 20 µL samples were removed and the reaction was stopped by adding 10 µL of 4x SDS loading buffer (62.5 mM Tris/HCl pH 6.8, 2.5%(w/v) SDS, 0.002%(w/v) bromophenol blue, 0.5 M β-mercaptoethanol, 10%(v/v) glycerol). To compare the activity of wild-type and mutant LspMrs, assays were allowed to proceed for 30 min before being stopped with SDS loading buffer. […] Band intensities of ICP were quantified using Image Lab. […]

Experiment [3] addresses T3, LspMrs R110K (Staphylococcus aureus, UniProt Q6GHN9, R110K).
T3 construct: MGSS-hexahistidine-SSGR-TEV site (ENLYFQ) (N, cleaved yes); made in house; host or cells: E. coli C43 (DE3)
Kind of experiment: Gel-shift peptidase assay, LspMrs R110K mutant. The experiment is classed as biochemical, methicillin-resistant Staphylococcus aureus. The procedure: LspA mutant genes (N52A, N52Q, G54A, G54P, R110A, R110K, D118N, N133A, N133Q and D136N) were obtained by site-directed mutagenesis of the wild-type lspA construct in pETDuet. Mutagenesis was performed using the Q5® Site-Directed Mutagenesis Kit (New England Biolabs) and specific primers are listed in Supplementary Table 5. The correct mutations were confirmed by sequencing (Eurofins Genomics). Expression and purification of all LspMrs wild-type and mutants for enzyme assays were performed as described above with the following modifications: TALON® Metal Affinity Resin (Clontech) was used for IMAC purification and the detergent DDM was used for membrane solubilisation and protein purification.
as §1
Gel-shift activity assay. […] Band intensities of ICP were quantified using Image Lab. […]

Broadly, the IC50 is the concentration at which inhibition is half-maximal. As to `CCCC1OC(=O)C(C)CC(C)CCCCC(=O)CCCC(CC)C=CC=C(COC)CCC(O)C(O)CC(O)CNC1=O` (stereo not drawn) [myxovirescin, myxovirescin A1], the IC50 in experiment [1] was determined as 1.09 ± 0.34 µM; in experiment [2], 0.16 µM; in experiment [3] it was 0.4 ± 0.03 µM. In addition, the remaining activity at 50 µM in experiment [1] (read-out: Normalized activity, Log[Myxovirescin](M) -4.30103) was 95.7%.

Regarding `CCCCCC[C@H]1OC(=O)CNC(=O)[C@H]([C@H](C)O)NC(=O)[C@H](CO)NC(=O)[C@H]([C@H](C)CC)NC(=O)[C@H](CC(C)C)N(C)C(=O)[C@@H]1C` [globomycin], the 50% inhibitory concentration (IC50) in experiment [1] stood at 0.64 ± 0.16 µM; in experiment [2], 171 µM; in experiment [3] it was 1.73 ± 0.1 µM. In addition, the remaining activity at 1000 µM in experiment [1] (Log[Globomycin](M) -3, read-out: Normalized activity) came out at 94.2%. In experiment [1] (Log[Globomycin](M) -4, read-out: Normalized activity), the remaining activity at 100 µM amounted to 94%.

The values above are taken from publication PMC6952399, “Structures of lipoprotein signal peptidase II from Staphylococcus aureus complexed with antibiotics globomycin and myxovirescin” (Nature Communications, 2020).
